In patent publication EP0107890B1, “Mammalian PGRF” (THE SALK INSTITUTE FOR BIOLOGICAL STUDIES, priority 1982, dated 1986):
Where no end group is shown, it is not given here.

Legend:
pituitary cells = assay: in vitro growth hormone release assay in rat pituitary cell cultures (immunoreactive GH by radioimmunoassay); assay type: cell-based
Procedure: To determine the effectiveness of the peptides to promote the release of growth hormone, in vitro assays are carried out using synthetic PGRF(1-40) of Example II in side-by-side comparison with equimolar concentrations of the extracted and purified native PGRF (1-40) and of a GRF Reference Standard having a known effectiveness to promote the release of growth hormone from pituitary cells. The GRF Reference standard is described and defined in Brazeau, et al., Endocrinology, Vol. 110, A538(1982) and is an amount of a preparation of rat hypothalamic origin that produces a half-maximal response in terms of GH release in a pituitary cell monolayer bioassay. Cultures are used which include cells of rat pituitary glands removed some four to five days previously. Both cultures of a defined standard medium and cultures which are considered optimal for the secretion of growth hormone are used for the comparative testing, in the general manner described in Brazeau, et al. Regulatory Peptides, 1, 255, 1981. Incubation with the substance to be tested is carried out for 3 to 4 hours, and aliquots of the culture medium are removed and processed to measure their contents in immunoreactive GH(ir GH) by a well-characterized radioimmunoassay.

normal male rats = assay: in vivo secretion of pituitary growth hormone after injection into anesthetized rats; conditions: injected into rats
Text: In addition to the in vitro tests for secretion of growth hormone, in vivo experiments were also run by injecting the synthetic peptide into normal male rats about 200 g. body weight, anesthetized with pentobarbital.

PGRF(1-40) (YADAIFTNSYRKVLGQLSARKLLQDIMSRQQGESNQERGA-OH; UniProt P01286 32-71, looked up, fragment) [Example II]
ED50 (pituitary cells; GH release from rat pituitary cell cultures, incubation 3 to 4 hours): about 113 picograms | biological activity compared with the native peptide (pituitary cells; in equimolar ratios, versus extracted and purified native PGRF (1-40)): full biological activity of the native peptide | GH-releasing activity in vivo (normal male rats): powerful stimulator of the secretion of pituitary growth hormone
